Laboratory results as given in patent US6752986B2, “Composition and methods for affecting metallocorrinoid uptake” (The Cleveland Clinic Foundation, priority 2001, dated 2004).

Tests used:
P388D1 = conditions: P388D1, high levels of Cbl; cited from earlier work
CCRF-CEM = conditions: high levels of Cbl; cited from earlier work
L1210 = conditions: L1210, high levels of Cbl; cited from earlier work
NCTC929 = conditions: NCTC929, high levels of Cbl; cited from earlier work
[1] = tested on: subcutaneous NIH-OVCAR-3 tumors; experiment: Intraperitoneal NO-Cbl treatment of established subcutaneous NIH-OVCAR-3 tumors; assay type: in vivo, nude mice
[2] = tested on: five human hematological and eight solid tumor cell lines; conditions: cited from earlier work
WM9 human melanoma = experiment: SRB anti-proliferative cell survival assay, WM9; assay type: cell-based; conditions: WM9 versus NIH-OVCAR-3
Method: WM9 human melanoma was evaluated after 4 days growth.
Cells (2×10^3) were seeded in 96-well plates. Data points represent mean of eight replicates. (n=8). A control plate was fixed 4 hr after seeding (to allow cells to attach) to determine the initial seeding density (Aini). This was defined as 0% growth. To the wells of the seeded experimental plate, IFN-β was added and incubation continued for 3-5 days. Untreated cell controls were included. Growth obtained with this control was defined as 100% (Afin). To determine cell number, cells were fixed with 10% trichloroacetic acid at 4° C. for 1 h. They were stained with 0.4% sulforhodamine B prepared in 1% acetic acid at 25° C. for 1 h (27). The wells were washed with 1% acetic acid. Bound dye was eluted with 100 μl of 10 mM Tris-HCl, ph 10.5 and quantitated in a microplate reader at 570 nm. Growth in IFN-β-treated wells (experimental=exp) was expressed as a percentage of untreated control growth (mean±SEM).
%Control growth=100%×(Aexp−Aini)/(Afin−Aini)
%STD=100%×(STDexp/(Afin−Aini))
%SEM=100%×(SEMexp/(Afin−Aini) ) where SEM=STD/✓n

[3] = tested on: NIH-OVCAR-3 ovarian carcinoma; experiment: SRB anti-proliferative cell survival assay, NIH-OVCAR-3; assay type: cell-based, human; conditions: concentration used in the Annexin V assay for 48 hrs

| Molecule | cell proliferation (P388D1) | cell proliferation (CCRF-CEM) | cell proliferation (L1210) | cell proliferation (NCTC929) | mean volume of untreated tumors compared to NO-Cbl treated tumors ([1]; at the end of the study) | decrease in volume of treated tumors ([1]; during the treatment period) | tumor response ([1]; intraperitoneal NO-Cbl, established subcutaneous NIH-OVCAR-3 tumors) | ID50 lower in tumor cell lines compared to benign cells (fibroblasts and endothelial cells) [2] | ID50 of WM9 cells compared to NIH-OVCAR-3 (WM9 human melanoma) | ID25 [3] |
| --- | --- | --- | --- | --- | --- | --- | --- | --- | --- | --- |
| C/C1=C2/[N-][C@H]([C@H](CC(N)=O)[C@@]2(C)CCC(=O)NC[C@@H](C)OP(=O)([O-])O[C@H]2[C@@H](O)[C@@H](n3cnc4cc(C)c(C)cc43)O[C@@H]2CO)[C@]2(C)N=C(/C(C)=C3N=C(/C=C4N=C1[C@@H](CCC(N)=O)C\4(C)C)[C@@H](CCC(N)=O)[C@]\3(C)CC(N)=O)[C@@H](CCC(N)=O)[C@]2(C)CC(N)=O.[Co] [Cbl, cobalamin] | inhibited | inhibited | inhibited | inhibited |  |  |  |  |  |  |
| Nitrosylcobalamin [NO-Cbl] |  |  |  |  | 18 fold | 4 fold | tumor regression | 5-100 fold | higher ID50 | 10 µM |
